{"source": "patent US20150225762A1", "about": "“SAME-DAY BLOOD CULTURE WITH DIGITAL MICROSCOPY” (ACCELERATE DIAGNOSTICS, INC., priority 2012, published 2015)", "key": {"Ecol 35218 [1]": {"test_system": "Ecol 35218", "assay": "Plate count of live bacteria after killing treatment", "format": "cell-based, E. coli"}, "Paer 27853 [2]": {"test_system": "Paer 27853", "assay": "Plate count of live bacteria after killing treatment", "format": "cell-based, P. aeruginosa"}, "Saur 12600 [3]": {"test_system": "Saur 12600", "assay": "Plate count of live bacteria after killing treatment", "format": "cell-based, S. aureus"}, "Ecol 35218 [4]": {"test_system": "Ecol 35218", "assay": "FISH detection of live and killed bacteria with or without protease digestion", "format": "cell-based, E. coli"}, "Kpne 13882 [5]": {"test_system": "Kpne 13882", "assay": "FISH detection of live and killed bacteria with or without protease digestion", "format": "cell-based, K. pneumoniae"}, "Paer 27853 [6]": {"test_system": "Paer 27853", "assay": "FISH detection of live and killed bacteria with or without protease digestion", "format": "cell-based, P. aeruginosa"}, "Saur 12600 [7]": {"test_system": "Saur 12600", "assay": "FISH detection of live and killed bacteria with or without protease digestion", "format": "cell-based, S. aureus"}, "Kpne 13882 [8]": {"test_system": "Kpne 13882", "assay": "Plate count of live bacteria after killing treatment"}, "[9]": {"conditions": "0 hr, after gentamycin 100 micrograms per mL 1 hour or 80% ethanol"}, "[10]": {"conditions": "gentamycin 1 hour or 80% ethanol"}, "[11]": {"conditions": "1 hour, with protease (0.2 mg/mL Pronase)"}, "[12]": {"conditions": "1 hour, with protease (0.2 mg/mL Pronase), cells live or pre-killed as labelled"}, "[13]": {"conditions": "4 hour, with protease (0.2 mg/mL Pronase)"}, "[14]": {"conditions": "4 hour, with protease (0.2 mg/mL Pronase), cells live or pre-killed as labelled"}}, "data": [{"substance": "gentamycin", "values": [{"measurement": "Conc of live bacteria by plating", "setting": "Ecol 35218 [1]; [9]", "value": 10, "unit": "cfu/mL"}, {"measurement": "Killing by plating, in words", "setting": "Ecol 35218 [1]; [10]", "value": "substantially killed"}, {"measurement": "Conc of live bacteria by plating", "setting": "Paer 27853 [2]; [9]", "value": 20, "unit": "cfu/mL"}, {"measurement": "Killing by plating, in words", "setting": "Paer 27853 [2]; [10]", "value": "substantially killed"}, {"measurement": "Conc of live bacteria by plating", "setting": "Saur 12600 [3]; [9]", "value": "2 × 10^3 cfu/mL"}, {"measurement": "Killing by plating, in words", "setting": "Saur 12600 [3]; [10]", "value": "a significant number of S. aureus remained alive"}, {"measurement": "FISH Conc", "setting": "Ecol 35218 [4]; 1 hour, no protease", "value": "8.8 × 10^6 cells/mL"}, {"measurement": "Positive Detection?", "setting": "Ecol 35218 [4]; 1 hour, no protease", "value": "Yes (A detection threshold of 1×10^4 cells per mL was used as the threshold for a positive call in the FISH assay)"}, {"measurement": "Positive Detection?", "setting": "Ecol 35218 [4]; [11]", "value": "Yes (A detection threshold of 1×10^4 cells per mL was used as the threshold for a positive call in the FISH assay)"}, {"measurement": "FISH Conc", "setting": "Ecol 35218 [4]; [12]", "value": "5.5 × 10^5 cells/mL"}, {"measurement": "FISH Conc", "setting": "Ecol 35218 [4]; 4 hour, no protease", "value": "4.8 × 10^5 cells/mL"}, {"measurement": "Positive Detection?", "setting": "Ecol 35218 [4]; 4 hour, no protease", "value": "Yes (A detection threshold of 1×10^4 cells per mL was used as the threshold for a positive call in the FISH assay)"}, {"measurement": "Positive Detection?", "setting": "Ecol 35218 [4]; [13]", "value": "Yes (A detection threshold of 1×10^4 cells per mL was used as the threshold for a positive call in the FISH assay)"}, {"measurement": "FISH Conc", "setting": "Ecol 35218 [4]; [14]", "value": "4.5 × 10^5 cells/mL"}, {"measurement": "FISH Conc", "setting": "Kpne 13882 [5]; 1 hour, no protease", "value": "1.7 × 10^5 cells/mL"}, {"measurement": "Positive Detection?", "setting": "Kpne 13882 [5]; 1 hour, no protease", "value": "Yes (A detection threshold of 1×10^4 cells per mL was used as the threshold for a positive call in the FISH assay)"}, {"measurement": "Positive Detection?", "setting": "Kpne 13882 [5]; [11]", "value": "Yes (A detection threshold of 1×10^4 cells per mL was used as the threshold for a positive call in the FISH assay)"}, {"measurement": "FISH Conc", "setting": "Kpne 13882 [5]; [12]", "value": "7.7 × 10^4 cells/mL"}, {"measurement": "FISH Conc", "setting": "Kpne 13882 [5]; 4 hour, no protease", "value": "<1 × 10^3 cells/mL"}, {"measurement": "Positive Detection?", "setting": "Kpne 13882 [5]; 4 hour, no protease", "value": "No (A detection threshold of 1×10^4 cells per mL was used as the threshold for a positive call in the FISH assay)"}, {"measurement": "Positive Detection?", "setting": "Kpne 13882 [5]; [13]", "value": "Yes (A detection threshold of 1×10^4 cells per mL was used as the threshold for a positive call in the FISH assay)"}, {"measurement": "FISH Conc", "setting": "Kpne 13882 [5]; [14]", "value": "1.7 × 10^4 cells/mL"}, {"measurement": "FISH Conc", "setting": "Paer 27853 [6]; 1 hour, no protease", "value": "3.7 × 10^5 cells/mL"}, {"measurement": "Positive Detection?", "setting": "Paer 27853 [6]; 1 hour, no protease", "value": "Yes (A detection threshold of 1×10^4 cells per mL was used as the threshold for a positive call in the FISH assay)"}, {"measurement": "Positive Detection?", "setting": "Paer 27853 [6]; [11]", "value": "Yes (A detection threshold of 1×10^4 cells per mL was used as the threshold for a positive call in the FISH assay)"}, {"measurement": "FISH Conc", "setting": "Paer 27853 [6]; [12]", "value": "5.3 × 10^4 cells/mL"}, {"measurement": "FISH Conc", "setting": "Paer 27853 [6]; 4 hour, no protease", "value": "3.0 × 10^5 cells/mL"}, {"measurement": "Positive Detection?", "setting": "Paer 27853 [6]; 4 hour, no protease", "value": "Yes (A detection threshold of 1×10^4 cells per mL was used as the threshold for a positive call in the FISH assay)"}, {"measurement": "Positive Detection?", "setting": "Paer 27853 [6]; [13]", "value": "No (A detection threshold of 1×10^4 cells per mL was used as the threshold for a positive call in the FISH assay)"}, {"measurement": "FISH Conc", "setting": "Paer 27853 [6]; [14]", "value": "6.7 × 10^3 cells/mL"}, {"measurement": "FISH Conc", "setting": "Saur 12600 [7]; 1 hour, no protease", "value": "1.4 × 10^5 cells/mL"}, {"measurement": "Positive Detection?", "setting": "Saur 12600 [7]; 1 hour, no protease", "value": "Yes (A detection threshold of 1×10^4 cells per mL was used as the threshold for a positive call in the FISH assay)"}, {"measurement": "Positive Detection?", "setting": "Saur 12600 [7]; [11]", "value": "Yes (A detection threshold of 1×10^4 cells per mL was used as the threshold for a positive call in the FISH assay)"}, {"measurement": "FISH Conc", "setting": "Saur 12600 [7]; [12]", "value": "1.1 × 10^5 cells/mL"}, {"measurement": "FISH Conc", "setting": "Saur 12600 [7]; 4 hour, no protease", "value": "3.0 × 10^4 cells/mL"}, {"measurement": "Positive Detection?", "setting": "Saur 12600 [7]; 4 hour, no protease", "value": "Yes (A detection threshold of 1×10^4 cells per mL was used as the threshold for a positive call in the FISH assay)"}, {"measurement": "Positive Detection?", "setting": "Saur 12600 [7]; [13]", "value": "Yes (A detection threshold of 1×10^4 cells per mL was used as the threshold for a positive call in the FISH assay)"}, {"measurement": "FISH Conc", "setting": "Saur 12600 [7]; [14]", "value": "3.0 × 10^4 cells/mL"}, {"measurement": "Conc of live bacteria by plating", "setting": "Kpne 13882 [8]; [9]", "value": 60, "unit": "cfu/mL"}, {"measurement": "Killing by plating, in words", "setting": "Kpne 13882 [8]; [10]", "value": "substantially killed"}]}]}
